Assay results from patent US9580398B2, “Compounds, compositions, and methods for modulating ferroptosis and treating excitotoxic disorders” (The Trustees of Columbia University in the City of New York, priority 2012, dated 2017).

Key:
system xc− = molecular target: T1, system xc− (Homo sapiens, UniProt Q9UPY5); test: [14C]cystine uptake assay (Na+-independent); type: cell-based; conditions: HT-1080 cells; erastin 10 μM, glutamate 50 mM, SAS 1 mM
T1 construct: endogenous in cells; host or cells: HT-1080 (American Type Culture Collection)
T1 sequence (Q9UPY5 1-501): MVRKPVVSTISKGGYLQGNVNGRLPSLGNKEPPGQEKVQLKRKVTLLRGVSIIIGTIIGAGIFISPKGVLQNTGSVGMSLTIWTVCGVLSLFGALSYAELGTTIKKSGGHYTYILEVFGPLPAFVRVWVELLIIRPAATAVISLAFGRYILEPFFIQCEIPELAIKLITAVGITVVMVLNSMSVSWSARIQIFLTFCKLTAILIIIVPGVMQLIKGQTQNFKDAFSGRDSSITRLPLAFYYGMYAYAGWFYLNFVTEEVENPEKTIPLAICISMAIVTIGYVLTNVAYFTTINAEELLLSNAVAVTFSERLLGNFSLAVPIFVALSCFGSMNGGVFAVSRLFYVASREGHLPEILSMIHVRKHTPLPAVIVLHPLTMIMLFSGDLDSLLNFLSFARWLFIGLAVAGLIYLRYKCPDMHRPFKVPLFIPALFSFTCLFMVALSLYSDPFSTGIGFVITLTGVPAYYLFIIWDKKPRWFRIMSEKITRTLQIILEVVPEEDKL
T1 sequence (P08195 1-529 partner): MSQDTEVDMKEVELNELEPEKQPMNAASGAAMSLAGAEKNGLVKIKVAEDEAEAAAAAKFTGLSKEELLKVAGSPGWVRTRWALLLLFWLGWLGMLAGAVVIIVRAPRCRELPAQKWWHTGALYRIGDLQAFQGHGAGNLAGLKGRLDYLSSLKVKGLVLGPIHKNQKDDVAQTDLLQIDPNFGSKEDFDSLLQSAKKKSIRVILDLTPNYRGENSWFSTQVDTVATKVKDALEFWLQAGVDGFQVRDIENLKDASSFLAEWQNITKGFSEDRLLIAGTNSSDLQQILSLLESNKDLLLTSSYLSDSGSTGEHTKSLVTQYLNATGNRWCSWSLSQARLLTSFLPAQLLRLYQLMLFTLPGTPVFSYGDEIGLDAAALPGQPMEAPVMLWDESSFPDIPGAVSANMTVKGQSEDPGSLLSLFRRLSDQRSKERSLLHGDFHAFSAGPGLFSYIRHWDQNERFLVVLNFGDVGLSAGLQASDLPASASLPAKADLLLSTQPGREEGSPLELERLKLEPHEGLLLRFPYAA
Procedure: 200,000 HT-1080 cells/well were seeded overnight in 6-well dishes (Corning). […] At this point, in each well the buffer was replaced with 600 μL uptake buffer containing compound and 0.12 μCi (80-110 mCi/mmol) of L-[3,3′-^14C]-cystine (Perkin Elmer) and incubated for 3 minutes at 37° C. Cells were then washed three times with ice-cold uptake buffer and lysed in 500 μL 0.1 M NaOH. To this lysate was added 15 mL of scintillation fluid and radioactive counts per minute were obtained using a scintillation counter. All measurements were performed in triplicate for each condition.

BJeLR cells = test: Erastin-induced death and ROS production in BJeLR cells; type: cell-based, human; conditions: erastin 10 μM, 6-AN 200 μM
Procedure: The day before the experiment, 200,000 cells/well were seeded in 6-well dishes (Corning Inc., Corning, N.Y.). The day of the experiment, cells were treated with test compounds for the indicated times, then harvested by trypsinization, resuspended in 500 μL Hanks Balanced Salt Solution (HBSS, Gibco, Invitrogen Corp., Carlsbad, Calif.) containing either H2DCFDA (25 μM), C11-BODIPY(581/591) (2 μM) or MitoSOX (5 μM) (all from Molecular Probes, Invitrogen) and incubated for 10 minutes at 37° C. in a tissue culture incubator. Cells were then resuspended in 500 μL of fresh HBSS, strained through a […] cell strainer (BD Falcon, BD Biosciences, San Jose, Calif.), and analyzed using a flow cytometer (FACSCalibur or Accuri C6, BD Biosciences), which was equipped with 488-nm laser for excitation. Data was collected from the FL1 (H2DCFDA, C11-BODIPY) or FL2 channel (MitoSOX). A minimum of 10,000 cells were analyzed per condition.
(§1) Cell viability was typically assessed in 384-well format by Alamar Blue (Invitrogen) fluorescence (ex/em 530/590) measured on a Victor3 platereader (Perkin Elmer, Waltham, Mass.). In some experiments, Trypan Blue dye exclusion counting was performed using an automated cell counter (ViCell, Beckman-Coulter Inc., Brea, Calif.). Cell viability in test conditions is reported as a percentage relative to the negative control treatment.

Calu-1 cells = test: Erastin-induced ferroptosis in Calu-1 cells with NOX pathway inhibitors; type: cell-based, human
Procedure: as §1

BJeLR and HT-1080 cells = test: Measurement of ATP levels; type: cell-based, human; conditions: normalized to viability
Procedure: ATP levels were evaluated using the ApoSENSOR ATP Assay Kit (Biovision Inc., Milpitas, Calif.) according to the manufacturer's instructions. 2000 HT-1080 or BJeLR cells were seeded in 96-well white bottom plates (Falcon). Cells were treated 12 hours later with compound as above for the TEM. Prior to luminescence measurement, medium was removed and cells were lysed and incubated with ATP Monitoring Enzyme. Luminescence was measured using a Victor3 platereader equipped with an infrared emission filter every 30 seconds for 10 minutes. Typically the first reading was used for data analysis. Parallel cell culture treatments were performed in 96-well clear bottom plates and cell viability was determined using Alamar Blue. These values were used to normalize ATP levels to cell viability.

HT-1080 cells = test: Erastin-induced death in HT-1080 cells with co-treated inhibitors (viability, microscopy); type: cell-based, human; conditions: HT-1080 cells
Procedure: as §1
Phase contrast images were acquired using an AMG EVOS FL (Advanced Microscopy Group) microscope equipped with a 10× phase-contrast objective. Three independent fields were acquired for each experimental condition. Representative samples from one field of view are shown.

[1] = test system: SLC7A11 mRNA in HT-1080 cells; test: SLC7A11 mRNA levels by RT-qPCR; type: cell-based, human
Procedure: RNA was extracted using the Qiashredder and Qiagen RNeasy Mini kits (Qiagen) according to the manufacturer's protocol. 2 μg total RNA for each sample was used as input for each reverse transcription reaction, performed using the TaqMan RT kit (Applied Biosystems, Life Technologies Corp., Carlsbad, Calif.). Primer pairs were designed for target transcripts using Primer Express 2.0 (Applied Biosystems). Quantitative PCR reactions were performed using the Power SYBR Green PCR Master Mix (Applied Biosystems). Triplicate samples per condition were analyzed on an Applied Biosystems 7300 qPCR instrument using absolute quantification settings. Differences in mRNA levels compared to HPRT1 or ACTB internal reference control were computed between control and experimental conditions using the ΔΔCt method.

Row | SMILES | Na+-independent uptake of [14C]cystine (system xc−) | suppression of erastin-induced ferroptosis in Calu-1 (Calu-1 cells) | also measured
1 | N[C@@H](CCC(=O)O)C(=O)O [glutamate] | abolished |  | 
2 | NC(=O)c1ccc(N)nc1 [6-AN, 6-aminonicotinamde] |  | strongly suppressed | cell death and ROS production in erastin-treated BJeLR (BJeLR cells): prevented cell death as well as ROS production
3 | O=C(O)c1cc(/N=N/c2ccc(S(=O)(=O)Nc3ccccn3)cc2)ccc1O [SAS, sulfasalazine] | abolished |  | 
4 | OO [H2O2] |  |  | intracellular ATP (BJeLR and HT-1080 cells): substantial depletion of intracellular ATP
5 | OCCS [β-ME, β-mercaptoethanol, reference compound] |  |  | inhibition of cell death induced by erastin, SAS and glutamate (HT-1080 cells): strongly inhibited cell death; effect on erastin/SAS-induced SLC7A11 upregulation [1]: suppressed
6 | COC(=O)c1ccc([C@@H]2c3[nH]c4ccccc4c3C[C@@H](C(=O)OC)N2C(=O)CCl)cc1 [RSL3] | had no effect |  | 
7 | CN(C)c1cccc(-c2c3c(=O)n(-c4ccccc4Cl)[nH]c3cc(=O)n2C)c1 [GKT137831] |  | strongly suppressed | 
8 | c1ccc2c(c1)[I+]c1ccccc1-2 [DPI, diphenylene iodonium] |  | strongly suppressed | 
